Measurements taken from patent publication US5352462A, “Anti-inflammatory factor, method of isolation, and use” (Stolle Research & Development Corporation, priority 1992, dated 1994).

Experiments:
[1] = system: reverse passive Arthus reaction; assay: Reverse passive Arthus reaction; type: in vivo, rat; conditions: 20 mg i.v.
Protocol: The possibility that the anti-inflammatory factor might affect neutrophil involvement was investigated by evaluating the ability of the material to modulate the reverse passive Arthus reaction (RPA). This immune complex-induced response is primarily neutrophil mediated and agents which affect the development of the reaction do so via an effect on these cells. To induce the RPA, rats were injected intradermally with rabbit antibody to ovalbumin and intravenously with native ovalbumin. Ovalbumin/ovalbumin-antibody immune complexes form in and around the dermal blood vessel walls, host neutrophils bind to the Fc portion of the antibody and an intense inflammatory reaction is initiated. It should be noted that, although the response is initiated by immune-complexes, it takes place independently of the host's immune system.
Three parameters are used to quantify the RPA. These are, (1) edema--measured using the accumulation of ^125 I-HSA, (2) hemorrhage--assessed by in vivo pre-labelling RBC's with ^59 Fe and (3) neutrophil accumulation--measured by determining tissue levels of the neutrophils specific enzyme myeloperoxidase (MPO). These assays are known to those of ordinary skill in the art.
Eighteen rats were divided into three groups of six. Rabbit antiovalbumin (40 μl) was injected intradermally at four sites on the back of each animal and 2 mg of ovalbumin injected intravenously immediately afterwards. One group of animals received no other treatment and served as controls. The second group were injected intravenously with 20 mg of a lactose preparation, while the final group were injected intravenously with 20 mg of a purified preparation of MAIF. Both lactose and MAIF preparation were administered with the ovalbumin. The severity of the reaction was assessed 3.5 hours after challenge.

[2] = system: neutrophil adhesion to venular endothelium; assay: Intravital microscopy of PAF-exposed rat mesenteric venules; type: in vivo; conditions: PAF superfusion 100 nM, 60 min
Protocol: The temperature of the pedestal was maintained at 37° C. with a constant temperature circulator (Fisher Scientific, model 80).

[3] = system: carrageenan-induced footpad edema; assay: Quantitative rat paw edema test with 125I-HSA; type: in vivo; conditions: aspirin 200 mg/kg oral, 30 min prior
Protocol: Peak I from the G-10 column, supplied by Stolle Milk Biologics International, was prepared according to the methods described in U.S. Pat. No. 4,956,349. Lactose, obtained from commercial sources, was used as placebo. Aspirin was used as a positive control. Aspirin was dissolved in water and given orally by gastric gavage at the ratio of 200 mg per kilogram, a dose known to be active in the assay. […] The footpad assay was modified by using isotopically labeled human serum albumin (^125 I-HSA) that localizes in the carrageenan-induced lesion in direct proportion to the volume of the exudate. By determining the total radioactive count in the footpad and comparing this to the counts in a known volume of plasma from the injected animal, a direct measurement of edema in microliters of plasma equivalents is obtained. ^125 I-HSA was injected intravenously at a dose of 1.0 microcurie per rat. Female Dark Agouti rats were used. […]
To conduct the carrageenan footpad assay, 0.1 ml of 2% carrageenan was injected subcutaneously into each hind foot pad of an anesthetized rat. […] Both hind feet were then removed and the levels of radioactivity in each foot and in the 200 μl plasma standard were measured in an automated gamma counter. From these measurements the volume of edema in each foot was calculated and expressed in microliters. […]

[4] = system: circulating neutrophils and lymphocytes; assay: Circulating leucocytes after i.v. administration; type: in vivo, rat
Protocol: Two experiments were done. In the first, the MAIF preparation was administered intravenously at a dose of 40 mg/rat to one group of 6 animals and a control group was injected with saline. Blood samples were obtained at baseline, 1, 4, and 24 hours after treatment.
A further dose-response study was carried out in which a group of rats were injected intravenously with saline, 5, 10 or 20 mg of the MAIF preparation. Blood from each rat had been taken 7 days previously to provide baseline values and was taken again 4 hours after the injection of MAIF. Included on the graph are the results obtained from the sample taken 4 hours after the administration of 40 mg the MAIF preparation (see FIG. 31).
Data were also obtained pertaining to the effect of three other cell-targeted, anti-inflammatory/immunomodulatory agents on circulating leucocytes in the rat. […] The temporal relationship between drug administration and effect is somewhat different. […] The effects of the anti-inflammatory factor would appear to closely parallel the action of methyl-prednisolone.

[5] = system: superoxide production by neutrophils; assay: Superoxide assay, cytochrome C reduction by stimulated neutrophils; type: cell-based, human
Protocol: Neutrophils from healthy donors were purified by dextran sedimentation followed by hypotonic lysis and Histopaque centrifugation. Except for the dextran sedimentation step, which was performed at room temperature, the cells were kept at 4° C. throughout the isolation procedure. […] After isolation, neutrophils were resuspended at a final concentration of 2×10^6 cells/ml in phosphate buffered saline (PBS). […] After washing, neutrophils were incubated in the dark at 4° C. for 30 minutes with saturating concentrations of fluorescein-conjugated murine anti-human CD18, human CD11 b, IGG coated microbeads (Simply Cellular™ microbeads) or the murine negative control antibody.
The reduction of cytochrome C by activated neutrophils was measured using a spectrophotometer (Hitachi U2000) at 550 nm. Briefly, sample was added to two cuvettes and one cuvette was used as a reference. The latter contained superoxide dismutase (superoxide scavenger). […] Superoxide production was measured for 3 min.

## OC[C@H]1O[C@@H](O[C@H]2[C@H](O)[C@@H](O)C(O)O[C@@H]2CO)[C@H](O)[C@@H](O)[C@H]1O (stereo partly drawn) [Lactose]
[1]
  suppression of neutrophil accumulation and hemorrhage: modest and marginally significant suppression
[1]; 3.5 hours after challenge
  Haemorrhage: μl of RBC: 3.0 ± 1.5 μl of RBC
  Neutrophil accumulation: Units of MPO: 0.214 ± .176 Units of MPO
  μl of Edema: 104 ± 23 µL

## CCCCCCCCCCCCCCCCOCC(COP(=O)([O-])OCC[N+](C)(C)C)OC(C)=O (stereo not drawn) [PAF]
[2]
  increase in neutrophil adhesion to postcapillary venules: approximately 6 fold

## CC(=O)Oc1ccccc1C(=O)O [aspirin, Acetylsalicylic acid]
[3]
  inhibition of edema: inhibited

## O=P1(N(CCCl)CCCl)NCCCO1 (stereo not drawn) [cyclophosphamide]
[4]; comparator agents
  circulating lymphocytes and neutrophils: depletes both circulating lymphocytes and neutrophils

## C[C@H]1C[C@@H]2[C@H]([C@@H](O)C[C@@]3(C)[C@H]2CC[C@]3(O)C(=O)CO)[C@@]2(C)C=CC(=O)C=C12 [methylprednisolone]
[4]; rat, in vivo
  lymphocyte/neutrophil ratio: analogous to that seen with MAIF

## superoxide dismutase
[5]
  cytochrome c reduction by PMA and fMLP-stimulated neutrophils: completely blocked
